Experimental data taken from PubChem BioAssay (NCI).
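Grown in 96-well plates, cells were treated for 48 hours with each compound at five concentrations. Insufficient inhibition: endpoint recorded as highest concentration tested. GI50 = concentration required for 50% inhibition of growth. TGI denotes the concentration required for complete inhibition of growth.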 Where a SMILES comes first, the peptide text is derived from it. [ ]: non-standard residue; d: D form. The star is where a group is joined. hSer = N[CH](CCO)C(=O)O; Boc = CC(C)(C)OC(=O)*

Legend:
Assay in all cases: NCI tumour cell line growth inhibition, 48 h
ACHN renal = test system: ACHN renal
COLO 205 colon = test system: COLO 205 colon
DU-145 prostate = test system: DU-145 prostate
HCT-15 colon = test system: HCT-15 colon
LOX IMVI melanoma = test system: LOX IMVI melanoma
M14 melanoma = test system: M14 melanoma
NCI-H522 lung = test system: NCI-H522 lung
SK-MEL-2 melanoma = test system: SK-MEL-2 melanoma
TK-10 renal = test system: TK-10 renal
UO-31 renal = test system: UO-31 renal

SMILES | TGI (ACHN renal) [µM] | TGI (COLO 205 colon) [µM] | TGI (DU-145 prostate) [µM] | TGI (HCT-15 colon) [µM] | TGI (LOX IMVI melanoma) [µM] | TGI (M14 melanoma) [µM] | TGI (NCI-H522 lung) [µM] | TGI (SK-MEL-2 melanoma) [µM] | TGI (TK-10 renal) [µM] | TGI (UO-31 renal) [µM] | GI50 (ACHN renal) [µM] | GI50 (COLO 205 colon) [µM] | GI50 (DU-145 prostate) [µM] | GI50 (HCT-15 colon) [µM] | GI50 (LOX IMVI melanoma) [µM] | GI50 (M14 melanoma) [µM] | GI50 (NCI-H522 lung) [µM] | GI50 (SK-MEL-2 melanoma) [µM] | GI50 (TK-10 renal) [µM] | GI50 (UO-31 renal) [µM]
N#Cc1[nH]c(=O)n(-c2ccc([N+](=O)[O-])cc2)c1N | > 10 | > 10 | > 10 | > 10 | > 10 | > 10 | > 10 | > 10 | > 10 | > 10 | – | – | – | – | – | – | – | – | – | –
CCOC(=O)C1(Cc2ccc(C)cc2)Cc2ccc(C)cc2C1=O (stereo not given) | > 100 | > 78.7 | > 100 | > 100 | > 65 | 47.3 | 36.9 | 32.9 | > 100 | > 100 | – | – | – | – | – | – | – | – | – | –
CCOC(=O)c1ccc(NC2Oc3cc4c(cc3C(c3cc(OC)c(OC)c(OC)c3)C2C)OCO4)cc1 (stereo not given) | > 63.4 | 0.645 | > 100 | > 54.6 | 32.9 | > 50.9 | 10.6 | > 63.4 | 99.5 | 4.65 | – | – | – | – | – | – | – | – | – | –
O=C(NCc1cn(Cc2cccc(Oc3ccccc3)c2)nn1)c1cccnc1Nc1ccccc1 | > 100 | 5.75 | 33.8 | > 100 | > 100 | 9.86 | 5.06 | 75.1 | 28.4 | > 100 | 5.67 | 2.79 | 3.94 | 3.81 | 4.54 | 2.86 | 2.11 | 6.05 | 4.3 | 2.49
Cc1ccc(N=Nc2c(O)c3ccccc3[nH]c2=O)c(S(=O)(=O)N(C)C)c1 | > 100 | > 100 | > 100 | > 100 | > 100 | > 100 | > 100 | > 100 | > 100 | > 100 | – | – | – | – | – | – | – | – | – | –
COC(=O)C1Cc2c(C)cccc2C1=O (stereo not given) | > 100 | > 100 | > 100 | > 100 | > 100 | > 100 | > 100 | > 100 | > 100 | > 100 | – | – | – | – | – | – | – | – | – | –
CN(NC(=O)c1ccco1)C1=NCCCCN1 | > 100 | > 100 | > 100 | > 100 | > 100 | > 100 | > 100 | > 100 | > 100 | > 100 | – | – | – | – | – | – | – | – | – | –
O=c1c2cc([N+](=O)[O-])ccc2n2n1Cc1ccccc1CC2 | > 100 | > 100 | > 100 | > 100 | > 100 | > 100 | > 100 | > 100 | > 100 | > 100 | – | – | – | – | – | – | – | – | – | –
CCOC(=O)C(NCc1ccccc1)(NC(=O)c1ccccc1)C(F)(F)F (stereo not given) | > 100 | > 100 | > 100 | > 100 | > 100 | > 100 | > 100 | > 100 | > 100 | > 100 | – | – | – | – | – | – | – | – | – | –
CCC1(O)C=CC(=O)C=C1 | 49 | > 100 | > 64.4 | 55.5 | 32.4 | 40.4 | 24.7 | > 100 | 45.6 | 36.7 | – | – | – | – | – | – | – | – | – | –
[N-]=N[N+]#I1OC(C(F)(F)F)(C(F)(F)F)c2ccccc21 | 29.1 | 27 | 38 | 21.2 | 77.1 | > 100 | 30.5 | 32 | 32 | 23.7 | – | – | – | – | – | – | – | – | – | –
O=C1Nc2ccccc2C(=O)OC(Cc2ccccc2)=Nc2ccccc21 | > 100 | > 100 | > 100 | > 100 | > 100 | > 100 | > 100 | > 100 | > 100 | > 100 | – | – | – | – | – | – | – | – | – | –
CN(C)CC1CCC/C(=C\c2ccc(N(C)C)cc2)C1=O (stereo not given) | 34 | 6.65 | 34 | 16.1 | 3.16 | 9.46 | 3.21 | 22.3 | 4.96 | 22.2 | – | – | – | – | – | – | – | – | – | –
O=c1cnn(C2OC(CO)C(O)C(F)C2O)c(=O)[nH]1 (stereo not given) | > 100 | > 100 | > 100 | > 100 | > 100 | > 100 | > 100 | > 100 | > 100 | > 100 | – | – | – | – | – | – | – | – | – | –
O=[N+]([O-])/C(C(Cl)=C(Cl)Cl)=C1\Nc2ccccc2O1 | > 100 | > 100 | > 100 | > 100 | > 100 | > 100 | 63.8 | > 100 | > 100 | 30.6 | – | – | – | – | – | – | – | – | – | –
COc1ccc2c(c1O)-c1c(OC)c(OC)cc3c1[C@H](C2)[N+](C)(C)CC3 | > 100 | > 100 | > 100 | > 100 | > 100 | > 100 | > 100 | > 100 | > 100 | > 100 | – | – | – | – | – | – | – | – | – | –
COCCC(NC(=O)C(CC(C)C)NC(=O)OC(C)(C)C)C(N)=O (stereo not drawn) (Boc-Leu-[hSer](Me)-NH2; configuration not given here) | > 100 | > 100 | > 100 | > 100 | > 100 | > 100 | > 100 | > 100 | > 100 | > 100 | – | – | – | – | – | – | – | – | – | –

SMILES | TGI (ACHN renal) [µM] | TGI (COLO 205 colon) [µM] | TGI (DU-145 prostate) [µM] | TGI (HCT-15 colon) [µM] | TGI (LOX IMVI melanoma) [µM] | TGI (M14 melanoma) [µM] | TGI (NCI-H522 lung) [µM] | TGI (SK-MEL-2 melanoma) [µM] | TGI (TK-10 renal) [µM] | TGI (UO-31 renal) [µM] | GI50 (ACHN renal) [µM] | GI50 (COLO 205 colon) [µM] | GI50 (DU-145 prostate) [µM] | GI50 (HCT-15 colon) [µM] | GI50 (LOX IMVI melanoma) [µM] | GI50 (M14 melanoma) [µM] | GI50 (NCI-H522 lung) [µM] | GI50 (SK-MEL-2 melanoma) [µM] | GI50 (TK-10 renal) [µM] | GI50 (UO-31 renal) [µM]
CCOC(=O)CC(C)C(C#N)(OP1(=O)OC(c2ccccc2)C(C)N1C)c1ccccc1 (stereo not given) | > 100 | 36.6 | > 100 | > 100 | > 100 | > 100 | > 100 | > 100 | > 100 | > 100 | – | – | – | – | – | – | – | – | – | –
COc1ccc(C2CC(c3cc4c(C)c(C(=O)c5ccccc5)oc4cc3O)=Nc3ccccc3S2)cc1OC (stereo not given) | > 100 | > 100 | > 100 | > 100 | > 100 | > 100 | > 85 | > 100 | > 100 | > 100 | – | – | – | – | – | – | – | – | – | –
COC1/C=C\C=C(/C)C(=O)NC2=CC(=O)C(NCCCl)=C(CC(C)CC(OC)C(O)C(C)/C=C(/C)C1OC(N)=O)C2=O (stereo not given) | 10.2 | 1.2 | 11.4 | 2.77 | 0.575 | 2.48 | 0.319 | 2.15 | 14.3 | 10.6 | – | – | – | – | – | – | – | – | – | –
O=C(CCSC(CC(=O)c1ccc(Cl)cc1)c1ccc(Cl)cc1)Nc1ccc(Cl)cc1 (stereo not given) | 27.5 | 35.2 | 27 | 24.2 | 18.3 | 28.2 | 40.2 | 28.9 | 29.9 | 26.9 | – | – | – | – | – | – | – | – | – | –
COC(=O)OC[C@H]1O[C@@H](n2cc(C)c(=O)[nH]c2=O)CC1OC(=O)OC (stereo not given in full) | > 100 | > 100 | > 100 | > 100 | > 100 | > 100 | > 100 | > 100 | > 100 | > 100 | – | – | – | – | – | – | – | – | – | –
C1=C2SSC3=CC=C(SSc4ccc(s4)SSC4=CC=C(SSC(=C1)S2)S4)S3 | > 100 | > 100 | > 100 | > 100 | > 100 | > 100 | > 100 | > 100 | > 100 | > 100 | – | – | – | – | – | – | – | – | – | –
CC12CC3c4ccccc4CN1C3(c1ccccc1)OC2=O (stereo not given) | > 100 | > 100 | > 100 | > 100 | > 100 | > 100 | > 100 | > 100 | > 100 | > 100 | – | – | – | – | – | – | – | – | – | –
CC(C)CN1CN(c2ccccc2)C2(CCN(CC(C)(c3ccc(F)cc3)C3OCCO3)CC2)C1=O (stereo not given) | 15 | 3.71 | 14.8 | 16.6 | 5.31 | 8.46 | 12.7 | 11.5 | 23.4 | 9.77 | – | – | – | – | – | – | – | – | – | –
CC1C(c2ccc(N(C)C)cc2)c2cc3c(cc2OC1N1CCCC1)OCO3 (stereo not given) | > 100 | > 100 | > 100 | > 100 | > 100 | > 100 | > 82 | > 82.6 | > 100 | > 100 | – | – | – | – | – | – | – | – | – | –
N#CI1OC(=O)c2ccccc21 | > 100 | > 100 | > 100 | > 100 | > 100 | > 100 | 55.6 | > 100 | > 100 | > 100 | – | – | – | – | – | – | – | – | – | –
O=S(=O)(O)c1ccc(NN(c2c(O)ccc3ccccc23)S(=O)(=O)O)cc1 | > 100 | > 100 | > 100 | > 100 | > 100 | > 100 | > 100 | > 100 | > 100 | > 100 | – | – | – | – | – | – | – | – | – | –
N#CC(c1ccc(O)cc1)N1CCN(C(C#N)c2ccc(O)cc2)CC1 (stereo not given) | > 100 | > 100 | > 91.5 | > 100 | > 100 | > 100 | > 100 | > 100 | > 100 | > 100 | – | – | – | – | – | – | – | – | – | –
c1ccc(COc2ccc(C[P+](c3ccccc3)(c3ccccc3)c3ccccc3)cc2)cc1 | 6.39 | 3.26 | 12.9 | 13.6 | 2.56 | 4.97 | 1.61 | 0.727 | 1.66 | 11 | – | – | – | – | – | – | – | – | – | –
Cc1cc(-c2ccc(C(=O)C(Cl)(Cl)Cl)[nH]2)on1 | > 100 | > 100 | 39.6 | > 100 | > 100 | > 100 | 97.4 | 66.7 | 69.1 | 56.7 | – | – | – | – | – | – | – | – | – | –
O=C(Cc1ccc(Cl)c(Cl)c1)NCCCN1CCN(CCCN2CCCCC2)CC1 | 60.2 | 29.8 | > 100 | 46.5 | 30.2 | 43.1 | 35.1 | 21.6 | 32.3 | 3.63 | – | – | – | – | – | – | – | – | – | –
CSc1nc2c(c(N(C)C)n1)C=Nn1c(nc3ccccc31)S2 | > 100 | > 100 | > 100 | > 100 | > 100 | > 100 | > 100 | > 100 | > 100 | > 100 | – | – | – | – | – | – | – | – | – | –
